The test system of data set [1] is Rattus norvegicus.
In data set [2] the test system is Canidae. The settings on record: for NOAEL: subchronic, duration: 90 days, Beagle.
Data set [3] relates to Canidae. The following applies: subchronic; duration: 3 months; oral; gavage; M/F; Beagle; Mydriasis.
A further data set has as its system Mus musculus. The settings on record: for LD50: acute.
The subject of data set [4] is Rattus norvegicus. The settings on record: subchronic; duration: 42 days; oral; gavage; CD(SD).
Data set [5] relates to Rattus norvegicus. The settings on record: chronic; duration: 26 weeks; oral; diet; Liver: Altered weight.
Data set [6] concerns Rattus norvegicus. The following applies: chronic; duration: 6 months; oral; diet; M; increased liver-to-body weight and liver-to-brain weight ratios.
In data set [7] the test system is Rattus norvegicus. The settings on record: developmental, oral, M.

Experimental findings from EPA's ToxValDB 9.5 are described below.

Some results are limits rather than exact numbers.

For the compound `CC(C)(C)c1cc(Cn2c(=O)n(Cc3cc(C(C)(C)C)c(O)c(C(C)(C)C)c3)c(=O)n(Cc3cc(C(C)(C)C)c(O)c(C(C)(C)C)c3)c2=O)cc(C(C)(C)C)c1O`, the LD50 with Rattus norvegicus [1] (acute, dermal) is greater than 2000 mg/kg; in the data set with Rattus norvegicus [1] (acute, dermal, Albino rats / Tif: RAI f (SPF)), greater than 2000 mg/kg; in the data set on Rattus norvegicus [1] (acute, oral, gavage, Tif : Raif (SPF), F3 - hybrid of RII 1/ Tif x RII 2/ Tif) it was greater than 5000 mg/kg. Also, the NOAEL in the data set on Rattus norvegicus [1] (chronic, duration: 92 days, oral, diet, F, Tif: RAIf (SPF), hybrids of RII/1 x RII/2) was determined as 62.4 mg/kg-day; with Rattus norvegicus [1] (chronic, duration: 92 days, oral, diet, M, Tif: RAIf (SPF), hybrids of RII/1 x RII/2), 234 mg/kg-day; with Canidae [2] (oral, diet), 370 mg/kg-day; in the data set with Canidae [2] (oral, diet, F), 370 mg/kg-day; with Canidae [2] (oral, diet, M) it was 370 mg/kg-day. Besides, in the data set on Rattus norvegicus [1] (subchronic, duration: 90 days, oral, diet, Albino Rats / Charles River strain), the NOAEC was 960 mg/kg-day.

In the data set on Canidae [3], `Cc1ccc2c(=O)c3cccc(CC(=O)O)c3oc2c1C` [5,6-Dimethylxanthenone-4-acetic acid] displayed an LOEL of 0.3 mg/kg-day and an NOEL of 0.1 mg/kg-day.

As for `CCCCCCCCCCCCCCCCCC(=O)OC[C@@H](O)[C@H]1OC[C@H](O)[C@H]1O` [Anhydrosorbitol stearate], the “NOAEL (% diet)” value in the data set with Mus musculus (chronic, duration: 80 weeks, dermal, (TO)) worked out at 0.5; in the data set on Rattus norvegicus [1] (reproduction developmental, duration: 2 years, oral, diet), 5; in the data set with Canidae [2] (chronic, duration: 20 months, dermal, Dog Other), 5. In addition, the LD50 with Rattus norvegicus [1] (acute, oral, gavage, Wistar) is greater than 15900 mg/kg. In the data set on Canidae [2] (chronic, duration: 21 months, oral, diet, Mongrel or Irish terrier), the LOAEL was 485 mg/kg-day. This compound gave an NOEL in the data set with Rattus norvegicus [4] of 1000 mg/kg-day.

In the case of `CCCCOC(=O)c1ccccc1C(=O)OCc1ccccc1` [Benzyl butyl phthalate], the NOAEL was 159 mg/kg-day with Rattus norvegicus [5]; greater than 5250 mg/kg-day with Mus musculus (short-term, duration: 14 days, oral, diet, B6C3F1); 10 mg/kg-day in the data set on Oryctolagus sp. (reproduction developmental, duration: 12 days, oral, F, New Zealand); 470 mg/kg-day with Rattus norvegicus [1] (chronic, duration: 182 days, oral, diet, Fischer 344); 498 mg/kg-day in the data set with Rattus norvegicus [1] (reproduction developmental, duration: 26 weeks, oral, diet, Fischer 344, generation: F0); 168 mg/kg-day with Rattus norvegicus [1] (reproduction developmental, duration: 26 weeks, oral, diet, Fischer 344, generation: F1). In addition, the NOAEL turned out to be 168 mg/kg-day in the data set with Rattus norvegicus [1] (reproduction developmental, duration: 26 weeks, oral, diet, M, Fischer 344); 500 mg/kg-day in the data set with Rattus norvegicus [1] (reproduction developmental, duration: 8 days, oral, gavage, F, Wistar); 500 mg/kg-day with Rattus norvegicus [1] (reproduction developmental, duration: 8 days, oral, gavage, Wistar, generation: F1); 420 mg/kg-day in the data set with Rattus norvegicus [1] (reproduction developmental, duration: 10 days, oral, diet, F, Sprague-Dawley); 1100 mg/kg-day in the data set with Rattus norvegicus [1] (reproduction developmental, duration: 10 days, oral, diet, Sprague-Dawley, generation: F1); 750 mg/kg-day in the data set on Rattus norvegicus [1] (reproduction developmental, duration: 14 days, oral, diet, Fischer 344, generation: F0). The NOAEL in the data set on Rattus norvegicus [1] (reproduction developmental, duration: 20 days, oral, diet, Wistar, generation: F1) was greater than 1020 mg/kg-day; in the data set on Rattus norvegicus [1] (reproduction developmental, duration: 21 days, oral, diet, Fischer 344, generation: F0), no more than 679 mg/kg-day; in the data set with Rattus norvegicus [1] (reproduction developmental, oral, diet, F, Wistar) it was less than 631 mg/kg-day; with Rattus norvegicus [1] (reproduction developmental, oral, diet, Wistar, generation: F0), 206 mg/kg-day; with Rattus norvegicus [1] (short-term, duration: 14 days, oral, gavage, Sprague-Dawley) it was 160 mg/kg-day; in the data set on Rattus norvegicus [1] (short-term, duration: 14 days, oral, gavage, Wistar), 480 mg/kg-day. The NOAEL worked out at 1000 mg/kg-day with Rattus norvegicus [1] (short-term, duration: 28 days, oral, diet, Sprague-Dawley); 500 mg/kg-day with Rattus norvegicus [1] (subchronic, duration: 42 days, oral, diet, Sprague-Dawley); 0.218 mg/L in the data set on Rattus norvegicus [1] (subchronic, duration: 90 days, inhalation, Sprague-Dawley); 375 mg/kg-day with Rattus norvegicus [1] (subchronic, duration: 90 days, oral, diet, Sprague-Dawley); 151 mg/kg-day in the data set on Rattus norvegicus [1] (subchronic, duration: 90 days, oral, diet, Wistar); 500 mg/kg-day in the data set with Canidae [2] (oral). Also, in the data set with Rattus norvegicus [6], the NOAEL came out at 159 mg/kg-day. The LD50 with Mus musculus (injection, Intraperitoneal, Swiss-Webster) was 3160 mg/kg; in the data set on Mus musculus (oral), 4170 mg/kg; in the data set with Oryctolagus sp. (acute, dermal), greater than 10000 mg/kg; in the data set with Rattus norvegicus [1] (acute, injection, Intraperitoneal), 2660 mg/kg. The LC50 in the data set on Rattus norvegicus [1] (acute, inhalation) is greater than 6.7 µg/mL. In addition, the LOAEL in the data set on Rattus norvegicus [1] (chronic, duration: 365 days, oral, diet, F, Fischer 344) amounted to 360 mg/kg-day; in the data set on Rattus norvegicus [1] (short-term, duration: 21 days, oral, diet, Fischer 344), 639 mg/kg-day; with Rattus norvegicus [1] (short-term, duration: 28 days, oral, diet, Fischer 344), 540 mg/kg-day; in the data set with Rattus norvegicus [6], 470 mg/kg-day. In addition, the NOEL with Rattus norvegicus [7] (Albino, generation: F1, F1: AGD (units not specified)) amounted to 100 mg/kg-day; in the data set with Rattus norvegicus [7] (gavage, Crj:CD, generation: F1, F1: AGD (mm) + F1: AGD (mm/cube root BW)) it was 400 mg/kg-day. Also, the LOEL in the data set on Rattus norvegicus [7] (drinking water, Wistar Alpk, generation: F1, F1: AGD (mm)) was found to be 0.18 mg/kg-day; in the data set with Rattus norvegicus [7] (gavage, Crj:CD, generation: F2, F2: AGD (mm)), 100 mg/kg-day.
